Measurements as given in article PMC12693419, “Design, Synthesis, Biological Evaluation, and In Silico Studies of Novel Multitarget Cinnamic Acid Hybrids” (Molecules, 2025).

What was measured:
bovine serum albumin = biological target: T1, bovine serum albumin (Bos taurus, UniProt P02769); assay: In vitro inhibition of albumin denaturation; details: heat denaturation, 60 °C 10 min
T1 construct: bovine serum albumin solution (fraction V); purchased Merck and Sigma-Aldrich; host or cells: bovine serum (fraction V)
T1 sequence (P02769 25-607): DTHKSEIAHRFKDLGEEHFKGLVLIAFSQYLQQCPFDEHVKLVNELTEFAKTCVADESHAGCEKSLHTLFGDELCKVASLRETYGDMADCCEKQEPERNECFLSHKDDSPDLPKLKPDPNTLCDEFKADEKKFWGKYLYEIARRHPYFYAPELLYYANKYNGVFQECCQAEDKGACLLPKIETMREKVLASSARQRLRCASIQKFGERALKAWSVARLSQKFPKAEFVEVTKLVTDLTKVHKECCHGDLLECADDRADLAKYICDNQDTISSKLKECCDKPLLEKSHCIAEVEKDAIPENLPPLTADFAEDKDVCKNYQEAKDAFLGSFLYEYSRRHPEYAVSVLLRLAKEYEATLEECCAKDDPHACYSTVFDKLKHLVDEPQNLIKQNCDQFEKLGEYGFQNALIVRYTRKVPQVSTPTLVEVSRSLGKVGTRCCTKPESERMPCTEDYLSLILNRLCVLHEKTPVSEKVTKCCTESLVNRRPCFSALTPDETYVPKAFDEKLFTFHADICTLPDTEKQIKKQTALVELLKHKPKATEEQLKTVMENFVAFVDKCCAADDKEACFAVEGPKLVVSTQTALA
Description: The ability of a compound to inhibit the thermal denaturation of albumin is considered an indicator of anti-inflammatory activity. Heat exposure simulates conditions of cellular stress or inflammation, during which protein and tissue damage occur. Certain substances can protect proteins from denaturation upon heating by stabilizing their structure and preventing aggregation and precipitation.
Inhibition of albumin denaturation was measured following the reported method. In a test tube, 1 mL of bovine serum albumin solution (fraction V, 1% w/v in phosphate buffer, pH 7.4) and 100 μL of the test compound solution were added sequentially. The mixture was incubated at 37 °C for 15 min, followed by heating at 60 °C for 10 min. After cooling to room temperature, the absorbance was measured at 660 nm. DMSO was used as the blank, and the results were compared to acetylsalicylic acid, which served as the reference compound (Table 6).

ovine COX-2 = biological target: T2, ovine COX-2 (Ovis aries, UniProt P79208); assay: In vitro inhibition of ovine cyclooxygenase-2
T2 sequence (P79208 17-603): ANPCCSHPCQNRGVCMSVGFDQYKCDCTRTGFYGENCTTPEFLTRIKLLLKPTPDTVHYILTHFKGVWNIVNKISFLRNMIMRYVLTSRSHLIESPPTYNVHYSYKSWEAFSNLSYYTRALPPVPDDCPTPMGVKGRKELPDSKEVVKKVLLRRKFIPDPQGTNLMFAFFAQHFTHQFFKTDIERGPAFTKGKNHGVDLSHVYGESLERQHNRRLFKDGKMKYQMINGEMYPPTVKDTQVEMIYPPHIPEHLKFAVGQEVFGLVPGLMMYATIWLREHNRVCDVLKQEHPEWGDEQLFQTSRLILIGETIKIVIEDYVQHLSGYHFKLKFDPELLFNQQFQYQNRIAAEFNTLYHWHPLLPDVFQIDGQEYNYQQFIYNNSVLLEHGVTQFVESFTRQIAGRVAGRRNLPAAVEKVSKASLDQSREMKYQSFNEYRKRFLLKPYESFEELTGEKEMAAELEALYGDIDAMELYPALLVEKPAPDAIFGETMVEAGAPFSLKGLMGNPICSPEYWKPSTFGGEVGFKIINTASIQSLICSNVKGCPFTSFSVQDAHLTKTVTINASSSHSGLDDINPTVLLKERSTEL
Description: In order to prevent this in the in vitro experiment used for testing COX inhibition activity of the new molecules, a co-substrate like N,N,N′,N′-tetramethyl-p-phenylenediamine (TMPD) is included, as it undergoes co-oxidation by PGG2. The oxidized TMPD has a maximum absorbance at 590 nm. […] To ensure maximum enzyme activity, heme is added to the reaction mixture during the in vitro assay for ovine COX-2 inhibition and COX-1 inhibition [63].
The in vitro COX-2 inhibitory activity was assessed using arachidonic acid (AA) as a substrate and N,N,N′,N′-tetramethyl-p-phenylenediamine (TMPD) as a co-substrate in a Tris-HCl buffer (pH 8.5), following the reported method [89]. To the test tube, 10 µL of the compound dissolved in DMSO was added to a mixture containing 730 µL of Tris-HCl buffer (pH 8.5), 50 µL of heme, 10 µL of COX-2 enzyme, and 100 µL of TMPD. The absorbance was measured at 590 nm. […] A blank determination was conducted as a negative control.

[1] = In vitro determination of NO release with Griess reagent; details: 100 μM, L-cysteine, pH 7.4, 37 °C, 60 min
Source text: This assay evaluates the ability of nitrate esters to release nitric oxide (NO). First, sodium nitroprusside (SNP) reacts with the thiol compound, cysteine, which serves as a reducing agent (Scheme 5). The thiol donates electrons, facilitating the breakdown of the nitroprusside complex. Afterwards, the reaction leads to the formation of intermediate complexes, such as nitrosothiol species and the decomposition of these intermediates results in the release of nitric oxide (NO). According to the literature, measurements are conducted both in the presence and absence of the thiol agent, cysteine. No significant difference was observed between the two experimental conditions, and the results were reproducible. Sodium nitroprusside (SNP) was used as the reference compound [65].
The compounds (from a 10 mM stock solution in DMSO, final concentration 100 μM) are added (20 μL) to each test tube. Then, 2 mL of phosphate buffer solution (pH 7.4) is added. L-cysteine, used as the thiol agent, is added to the mixture at a final concentration of 0.5 mM. The solution is incubated at 37 °C for 60 min, after which 1 mL is removed and mixed with 250 μL of Griess reagent (4 g sulfanilamide, 0.2 g N-(1-naphthyl)-ethylenediamine dihydrochloride, and 10 mL of H3PO4 solution, final volume adjusted to 100 mL). The mixture is allowed to stand for 10 min at room temperature, and the absorbance of the produced compound is measured at 540 nm. Sodium nitroprusside (SNP) is used as the reference compound. The results are presented as the release of NO2^− (% NO2^− (mol/mol)) induced by the compounds in the presence of L-cysteine (Table 6).

[2] = biological target: T3, soybean lipoxygenase isoenzyme-1 (SLOX-1) (Glycine max, UniProt P08170); assay: In vitro inhibition of soybean lipoxygenase; type: biochemical; details: for IC50: pH 9.0, read-out: LOX Inh. IC50; for LOX Inh. IC50: pH 9.0
T3 construct: purchased Merck and Sigma-Aldrich
T3 sequence (P08170 1-839): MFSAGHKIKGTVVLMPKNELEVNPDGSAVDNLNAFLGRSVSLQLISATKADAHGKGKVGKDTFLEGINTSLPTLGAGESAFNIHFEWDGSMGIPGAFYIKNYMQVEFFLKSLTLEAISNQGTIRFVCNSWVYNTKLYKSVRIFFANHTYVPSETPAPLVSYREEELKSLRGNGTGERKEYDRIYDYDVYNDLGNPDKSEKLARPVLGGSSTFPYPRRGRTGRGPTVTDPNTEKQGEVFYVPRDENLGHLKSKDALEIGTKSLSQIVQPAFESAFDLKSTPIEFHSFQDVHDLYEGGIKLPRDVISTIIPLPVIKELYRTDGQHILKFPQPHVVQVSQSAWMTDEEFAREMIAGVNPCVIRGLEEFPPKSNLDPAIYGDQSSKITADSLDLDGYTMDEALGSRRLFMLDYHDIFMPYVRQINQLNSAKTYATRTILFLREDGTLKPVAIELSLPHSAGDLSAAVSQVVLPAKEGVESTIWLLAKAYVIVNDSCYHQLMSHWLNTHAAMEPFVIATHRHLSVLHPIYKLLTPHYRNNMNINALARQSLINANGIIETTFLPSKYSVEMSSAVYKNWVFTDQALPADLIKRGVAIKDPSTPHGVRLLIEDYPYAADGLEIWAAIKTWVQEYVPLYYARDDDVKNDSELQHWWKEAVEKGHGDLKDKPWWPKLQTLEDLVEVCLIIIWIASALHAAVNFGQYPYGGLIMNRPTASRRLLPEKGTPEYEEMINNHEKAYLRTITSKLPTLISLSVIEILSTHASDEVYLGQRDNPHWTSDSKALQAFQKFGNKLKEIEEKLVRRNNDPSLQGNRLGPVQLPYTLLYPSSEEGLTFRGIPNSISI
Description: In vitro anti-LOX activities were evaluated using soybean lipoxygenase isoenzyme-1 (SLOX-1), a commonly used model for mammalian LOXs.
An in vitro study was conducted following a previously reported method. The tested compounds were dissolved in DMSO (100 µM) and incubated at room temperature with 0.1 mL of sodium linoleate as the substrate and 0.2 mL of soybean lipoxygenase solution in Tris-HCl buffer (pH 9.0).

[3] = In vitro inhibition of linoleic acid lipid peroxidation (AAPH); details: 100 μM; anti-lipid peroxidation
Source text: In the present study, the aim was to evaluate the anti-lipid peroxidation activities of the synthesized compounds 5a–i, 6a–i, 9a–i, and 11 and compare their efficacy to that of Trolox, a well-known antioxidant. Using the water-soluble compound 2,2′-azobis(2-amidinopropane) hydrochloride (AAPH), peroxyl radicals are generated through spontaneous thermal decomposition in vitro. This experimental setup imitated the lipid peroxidation processes occurring in cells due to radical activity allowing the investigation of the effectiveness of the tested compounds under conditions resembling cellular oxidative stress.
An in vitro assay was performed following previously established protocols. The compound 2,2′-Azobis(2-methylpropionamidine) dihydrochloride (AAPH) was used as a controlled source of thermally generated alkylperoxy free radicals. The formation of conjugated diene hydroperoxides through the oxidation of sodium linoleate in an aqueous dispersion at 37 °C was measured by monitoring absorbance at 234 nm. The results were compared with the reference compound, Trolox (93%) (Table 6).

| Compound | Albumin (inhibition of albumin denaturation) (bovine serum albumin) | COX-2 Inh. IC50 (ovine COX-2) | %NO2^− Release mol/mol at 100 μΜ [1] | IC50 [2] [µM] | AAPH Inh. at 100 μΜ [3] | LOX Inh. IC50 [2] |
| --- | --- | --- | --- | --- | --- | --- |
| O=C(/C=C/c1cc2ccccc2o1)OCc1c(-c2ccccc2)no[n+]1[O-] [Compound 9f, (E)-3-(((3-(Benzofuran-2-yl)acryloyl)oxy)methyl)-4-phenyl-1,2,5-oxadiazole 2-oxide] | no | no | no | 70 | 97% |  |
| O=C(C=Cc1ccccc1)OCCOc1no[n+]([O-])c1S(=O)(=O)c1ccccc1 [Compound 11, 4-(2-(Cinnamoyloxy)ethoxy)-3-(phenylsulfonyl)-1,2,5-oxadiazole 2-oxide] | no | no | 11% |  | 90% | complete loss of activity and no |
| C/C(=N\O)c1ccc(NC(=O)COC(=O)/C=C/c2cccc3ccccc23)cc1 [Compound 6b, 2-((4-((E)-1-(Hydroxyimino)ethyl)phenyl)amino)-2-oxoethyl (E)-3-(naphthalen-1-yl)acrylate] | no | no | 1.1% | 60 | 94% |  |
| C/C(=N\O)c1ccc(NC(=O)COC(=O)/C=C/c2cc3ccccc3o2)cc1 [Compound 6f, 2-((4-((E)-1-(Hydroxyimino)ethyl)phenyl)amino)-2-oxoethyl (E)-3-(benzofuran-2-yl)acrylate] | no | no | 0.3% | 61 | no |  |
| O=C(/C=C/c1cccs1)OCc1c(-c2ccccc2)no[n+]1[O-] [Compound 9c, (E)-4-Phenyl-3-(((3-(thiophen-2-yl)acryloyl)oxy)methyl)-1,2,5-oxadiazole 2-oxide] | no | no | 1.2% |  | 73.3% | no |
| O=C(/C=C/c1ccco1)OCc1c(-c2ccccc2)no[n+]1[O-] [Compound 9d, (E)-3-(((3-(Furan-2-yl)acryloyl)oxy)methyl)-4-phenyl-1,2,5-oxadiazole 2-oxide] | no | no | no | 63 | 78% |  |
| O=C(OCc1c(-c2ccccc2)no[n+]1[O-])/C(=C/c1cccc2ccccc12)c1ccccc1 [Compound 9h, (E)-3-(((3-(Naphthalen-1-yl)-2-phenylacryloyl)oxy)methyl)-4-phenyl-1,2,5-oxadiazole 2-oxide] | no | no | no | 10 | 94.5% |  |
| C/C(=N\O)c1ccc(NC(=O)COC(=O)/C=C/c2ccco2)cc1 [Compound 6d, 2-((4-((E)-1-(Hydroxyimino)ethyl)phenyl)amino)-2-oxoethyl (E)-3-(furan-2-yl)acrylate] | 10% | no | 0.2% |  | 54% | no |
| C/C(=N\O)c1ccc(NC(=O)COC(=O)/C=C/c2cc3ccccc3s2)cc1 [Compound 6e, 2-((4-((E)-1-(Hydroxyimino)ethyl)phenyl)amino)-2-oxoethyl (E)-3-(benzo[b]thiophen-2-yl)acrylate] | 63% | no | 1.1% |  | no | no |
